Laboratory results from patent US11498928B2, “Macrocyclic spiroethers as Mcl-1 inhibitors” (ASCENTAGE PHARMA (SUZHOU) CO., LTD., priority 2019, dated 2022).

Experiments:
[1] = target: T1, Mcl-1 protein (residues 171-323) (Homo sapiens, UniProt Q07820); test: Inhibition of Mcl-1 by fluorescence polarization (FP) competitive binding assay with FAM-Bid tracer; conditions: 2 nM FAM-Bid, 20 nM Mcl-1, 30 min
T1 construct: Tag-free Mcl-1 protein (residues 171-323) was used in the FP assay
Description: Inhibition of Mcl-1 by Fluorescence Polarization (FP) Assay.
The relative binding potency of representative Compounds of the Disclosure was determined by a fluorescence polarization (FP) assay (Long et al, BMC Biotechnology 13:45 (2013)). The method used a fluorescein labelled peptide (FAM-Bid) which binds to the Mcl-1 protein leading to an increased anisotropy measured in milli-polarization (mP) values using a plate reader. […] Tag-free Mcl-1 protein (residues 171-323) was used in the FP assay (Mady et al, Scientific Reports 8: 10210-10210 (2018); Yang et al, ACS Med. Chem. Lett. 3:308-312 (2012)).
A 10-points serial dilution of each compound was prepared in DMSO and 5 μL solution was transferred into flat bottomed, 96-well back plate (final DMSO concentration 5%). 120 μL of Buffer (PBS, 0.01% BGG (Sigma Cat. #SRE0011), 0.01% Triton X-100), containing the Fluorescein labelled peptide (Final concentration 2 nM) and Mcl-1 protein (final concentration 20 nM) was then added. Assay plates were incubated 30 mins at room temperature with gentle shaking before FP was measured on a Biotek Synergy 1MF reader (Ex. 485 nm, Em. 528 nm, Cut off 510 nm) and mP calculated. The binding of increasing doses of test compounds was expressed as a percentage reduction in mP compared to a window established between 5% DMSO only and 100% inhibition controls (no Mcl-1 protein). 10-points dose response curves were plotted with GraphPad software using Sigmoidal Dose-Response Model and the IC50 values were determined by nonlinear regression fitting of the competition curves. Cell Viability Assay (NCI-H929 cells)

[2] = test system: NCI-H929 cells; test: Cell viability assay (NCI-H929 cells), CCK-8; assay type: cell-based; conditions: Homo sapiens, NCI-H929, 24 h, 5% FBS
Description: NCI-H929 cells were obtained from American Type Culture Collection (ATCC). Cells were maintained in the recommended culture medium (RPMI 1640) with 10% FBS and 0.05 mM BME at 37° C. and an atmosphere of 5% CO2.
The effect of Compounds on cell viability was determined using Cell Counting Kit-8 (CCK-8) assay according to the manufacturer's instructions. 95 μL of NCI-H929 cell suspension (20000 cells/well) in culture medium were seeded into 96-well plates and cultured 4 hrs. Each tested compound was serially diluted in DMSO, then 5 μL of the compound or DMSO was diluted in 95 μL medium once more. At last, 5 μL of the compound dilution was added to the corresponding well of the cell plate. After the addition of the tested compound, the cells were incubated at 37° C. in an atmosphere of 5% CO2 for 24 hrs. At the end, 10 μL of CCK-8 solution was added to each well of the plate and incubated for 1-4 hours. The plates were read at 450 nm on the microplate reader (BioTek Synergy 1MF). The readings were normalized to the vehicle cells, and the IC50 was calculated by nonlinear regression analysis using GraphPad Prism 6 software. Cell Viability Assay (OPM-2 cells)

[3] = test system: OPM-2 cells; test: Cell viability assay (OPM-2 cells), CCK-8; assay type: cell-based; conditions: Homo sapiens, OPM-2, 24 h, 5% FBS
Description: OPM-2 cells were obtained from Deutsche Sammlung von Mikroorganismen and Zellkulturen GmbH (DSMZ). Cells were maintained in the recommended culture medium with 10% FBS at 37° C. and an atmosphere of 5% CO2.
The effect of representative Compounds of the Disclosure on cell viability was determined using Cell Counting Kit-8 (CCK-8) assay (Shanghai Life iLab Bio Technology) according to the manufacturer's instructions. Each tested compound was serially diluted in culture medium, 100 μL of the compound dilution was added into 96-well plates. 100 μL of an OPM-2 cell suspension (20000 cells/well) in culture medium were seeded into the corresponding well of the plate and the cells were incubated at 37° C. in an atmosphere of 5% CO2 for 24 hours. In the next day, 20 μL of CCK-8 solution was added to each well of the plate and incubated for 4 hours.
The plates were read at 450 nm on the microplate spectrophotometer (SpectraMax plus 384, Molecular devices). The readings were normalized to the vehicle cells, and the IC50 was calculated by nonlinear regression analysis using GraphPad Prism 6 software.

T1 sequence (Q07820 171-323): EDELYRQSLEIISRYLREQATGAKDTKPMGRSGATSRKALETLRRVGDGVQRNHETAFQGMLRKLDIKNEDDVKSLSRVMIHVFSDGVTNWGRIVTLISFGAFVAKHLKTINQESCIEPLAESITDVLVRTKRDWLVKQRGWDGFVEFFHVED

| IC50 [1] [nM] | IC50 [2] [nM] | Compound | IC50 [3] [nM] |
| --- | --- | --- | --- |
| 8 | 3000 | CO[C@H]1C2CC(C2)[C@H](C)CS(=O)(=O)NC(=O)c2ccc3c(c2)N(C[C@@H]2CC[C@H]21)C[C@@]1(CCCc2cc(Cl)ccc21)CO3 [compound 3] | 5450 |
| 420 | 3400 | CO[C@H]1C2=C[C@@H](C2)[C@H](C)[C@@H](C)S(=O)(=O)NC(=O)c2ccc3c(c2)N(C[C@@H]2CC[C@H]21)C[C@@]1(CCCc2c1cc(F)c(Cl)c2F)CO3 [compound 25] | 2500 |
| 13 | 10 | CO[C@@]1(CN2CCN3CCCC[C@H]3C2)C2=C[C@@H](C2)[C@H](C)[C@@H](C)S(=O)(=O)NC(=O)c2ccc3c(c2)N(C[C@@H]2CC[C@H]21)C[C@@]1(CCCc2c1ccc(Cl)c2F)CO3 [compound 32, (1S,11′R,12′S,13′R,16′R,16a′R,18a′R,E)-6-chloro-5-fluoro-16′-methoxy-11′,12′-dimethyl-16′-(((S)-octahydro-2H-pyrido[1,2-a]pyrazin-2-yl)methyl)-3,4,12′,13′,16′,16a′,17′,18′,18a′,19′-decahydro-1′H,2H,3′H,11′H-spiro[naphthalene-1,2′-[5,7]etheno[13,15]methanocyclobuta[i][1,4]oxazepino[3,4-f][1]thia[2,7]diazacyclohexadecin]-8′(9′H)-one 10′,10′-dioxide] | 29 |
| 13 | 4.4 | CO[C@@]1(CN2CCN(C3CCOCC3)CC2)C2=C[C@@H](C2)[C@H](C)[C@@H](C)S(=O)(=O)NC(=O)c2ccc3c(c2)N(C[C@@H]2CC[C@H]21)C[C@@]1(CCCc2c1ccc(Cl)c2F)CO3 [compound 36] | 35 |
| 17 | 12 | CO[C@@]1(CN2CCC(N3CCOCC3)CC2)C2=C[C@@H](C2)[C@H](C)[C@@H](C)S(=O)(=O)NC(=O)c2ccc3c(c2)N(C[C@@H]2CC[C@H]21)C[C@@]1(CCCc2c1ccc(Cl)c2F)CO3 [compound 37, (1S,11′R,12′S,13′R,16′R,16a′R,18a′R,E)-6-chloro-5-fluoro-16′-methoxy-11′,12′-dimethyl-16′-((4-morpholinopiperidin-1-yl)methyl)-3,4,12′,13′,16′,16a′,17′,18′,18a′,19′-decahydro-1′H,2H,3′H, 11′H-spiro[naphthalene-1,2′-[5,7]etheno[13,15]methanocyclobuta[i][1,4]oxazepino[3,4-f][1]thia[2,7]diazacyclohexadecin]-8′(9′H)-one 10′,10′-dioxide] | 63 |
| 15 | 50 | CO[C@@]1(CN2CCN(S(C)(=O)=O)CC2)C2=C[C@@H](C2)[C@H](C)[C@@H](C)S(=O)(=O)NC(=O)c2ccc3c(c2)N(C[C@@H]2CC[C@H]21)C[C@@]1(CCCc2c1ccc(Cl)c2F)CO3 [compound 38, (1S,11′R,12′S,13′R,16′R,16a′R,18a′R,E)-6-chloro-5-fluoro-16′-methoxy-1′,12′-dimethyl-16′-((4-(methylsulfonyl)piperazin-1-yl)methyl)-3,4,12′,13′,16′,16a′,17′,18′,18a′,19′-decahydro-1′H,2H,3′H,11′H-spiro[naphthalene-1,2′-[5,7]etheno[13,15]methanocyclobuta[i][1,4]oxazepino[3,4-f][1]thia[2,7]diazacyclohexadecin]-8′(9′H)-one 10′,10′-dioxide] | 30 |

The remaining lines, values behind:

| Compound | IC50 [1] [nM] | IC50 [2] [nM] | IC50 [3] [nM] |
| --- | --- | --- | --- |
| CO[C@@H]1C2CC(C2)[C@H](C)N(C)S(=O)(=O)NC(=O)c2ccc3c(c2)N(C[C@@H]2CC[C@H]21)C[C@@]1(CCCc2cc(Cl)ccc21)CO3 [Cpd. No. 29, (1S,12′S,16′R,16a′R,18a′R)-6-chloro-16′-methoxy-11′,12′-dimethyl-3,4,12′,13′,14′,15′,16′,16a′,17′,18′,18a′,19′-dodecahydro-1′H,2H,3′H,11′H-spiro[naphthalene-1,2′-[5,7]etheno[13,15]methanocyclobuta[i][1,4]oxazepino[3,4-f][1]thia[2,7,16]triazacyclohexadecin]-8′(9′H)-one 10′,10′-dioxide] | 16 | 5500 | 5210 |
| CO[C@H]1C2=CC3(C2)CN(C3)S(=O)(=O)NC(=O)c2ccc3c(c2)N(C[C@@H]2CC[C@H]21)C[C@@]1(CCCc2cc(Cl)ccc21)CO3 [compound 31, (1S,16′R,16a′R,18a′R)-6-chloro-16′-methoxy-3,4,16′,16a′,17′,18′,18a′,19′-octahydro-1′H,2H,3′H,12′H-spiro[naphthalene-1,2′-[5,7]etheno[11,13:13,15]dimethanocyclobuta[i][1,4]oxazepino[3,4-f][1]thia[2,7,16]triazacyclohexadecin]-8′(9′H)-one 10′,10′-dioxide] | 11 | 9700 | 9280 |
| CO[C@@]1(CN2CCOCC2)C2=C[C@@H](C2)[C@H](C)[C@@H](C)S(=O)(=O)NC(=O)c2ccc3c(c2)N(C[C@@H]2CC[C@H]21)C[C@@]1(CCCc2c1ccc(Cl)c2F)CO3 [compound 33, (1S,11′R,12′S,13′R,16′R,16a′R,18a′R,E)-6-chloro-5-fluoro-16′-methoxy-11′,12′-dimethyl-16′-(morpholinomethyl)-3,4,12′,13′,16′,16a′,17′,18′,18a′,19′-decahydro-1′H,2H,3′H,11′H-spiro[naphthalene-1,2′-[5,7]etheno[13,15]methanocyclobuta[i][1,4]oxazepino[3,4-f][1]thia[2,7]diazacyclohexadecin]-8′(9′H)-one 10′,10′-dioxide] | 13 | 36 | 52 |
| CO[C@@]1(CN2CCN3CCOC[C@H]3C2)C2=C[C@@H](C2)[C@H](C)[C@@H](C)S(=O)(=O)NC(=O)c2ccc3c(c2)N(C[C@@H]2CC[C@H]21)C[C@@]1(CCCc2c1ccc(Cl)c2F)CO3 [compound 34, (1S,11′R,12′S,13′R,16′R,16a′R,18a′R,E)-6-chloro-5-fluoro-16′-(((R)-hexahydropyrazino[2,1-c][1,4]oxazin-8(1H)-yl)methyl)-16′-methoxy-11′,12′-dimethyl-3,4,12′,13′,16′,16a′,17′,18′,18a′,19′-decahydro-1′H,2H,3′H,11′H-spiro[naphthalene-1,2′-[5,7]etheno[13,15]methanocyclobuta[i][1,4]oxazepino[3,4-f][1]thia[2,7]diazacyclohexadecin]-8′(9′H)-one 10′,10′-dioxide] | 9.7 | 16 | 35 |
| CO[C@@]1(CN2CCN(C)CC2)C2=C[C@@H](C2)[C@H](C)[C@@H](C)S(=O)(=O)NC(=O)c2ccc3c(c2)N(C[C@@H]2CC[C@H]21)C[C@@]1(CCCc2c1ccc(Cl)c2F)CO3 [compound 35, (1S,11′R,12′S,13′R,16′R,16a′R,18a′R,E)-6-chloro-5-fluoro-16′-methoxy-11′,12′-dimethyl-16′-((4-methylpiperazin-1-yl)methyl)-3,4,12′,13′,16′,16a′,17′,18′,18a′,19′-decahydro-1′H,2H,3′H, 11′H-spiro[naphthalene-1,2′-[5,7]etheno[13,15]methanocyclobuta[i][1,4]oxazepino[3,4-f][1]thia[2,7]diazacyclohexadecin]-8′(9′H)-one 10′,10′-dioxide] | 14 | 2.4 | 32 |
